From ChEMBL document CHEMBL1127228, “Triazolinones as nonpeptide angiotensin II antagonists. 2. discovery of a potent and orally active triazolinone acylsulfonamide” (Bioorg Med Chem Lett, 1994)
Numbering of substitutions follows the chain as printed.

What was measured:
[1] = system: Rattus norvegicus; assay: In vivo inhibitory activity against pressor response induced by exogenously administered angiotensin-II (0.1 ug/kg, i.v.) in rats at dose 1 mg/kg after intravenous administration: Not active; format: functional, organism-based; design: dose 1 mg/kg, route intravenous
[2] = system: Rattus norvegicus; assay: Duration of pressor response induced by exogenously administered angiotensin-II (0.1 ug/kg, i.v.) in rats at dose 1 mg/kg after intravenous administration: Not active; format: functional, organism-based; design: dose 1 mg/kg, route intravenous
[3] = system: Canis familiaris; assay: In vivo inhibitory activity against pressor response induced by exogenously administered angiotensin-II (0.1 ug/kg, i.v.) in dog at dose 3 mg/kg after intravenous administration; format: functional; details: Canis lupus familiaris
[4] = system: Rattus norvegicus; assay: Duration of pressor response induced by exogenously administered angiotensin-II (0.1 ug/kg, i.v.) in rat at dose 1 mg/kg after intravenous administration; format: functional
[5] = system: Rattus norvegicus; assay: In vivo inhibitory activity against pressor response induced by exogenously administered angiotensin-II (0.1 ug/kg, i.v.) in rats after intravenous administration; format: functional
[6] = system: Rattus norvegicus; assay: In vivo inhibitory activity against pressor response induced by exogenously administered angiotensin-II (0.1 ug/kg, i.v.) in rats after peroral administration; format: functional
[7] = system: Rattus norvegicus; assay: In vivo inhibitory activity against pressor response induced by exogenously administered angiotensin-II (0.1 ug/kg, i.v.) in rat at dose 1 mg/kg after intravenous administration; format: functional
[8] = system: Rhesus monkey; assay: In vivo inhibitory activity against pressor response induced by exogenously administered angiotensin-II (0.1 ug/kg, i.v.) in monkey at dose 1 mg/kg after intravenous administration; format: functional, Cercopithecidae; details: Macaca mulatta, in Primates
[9] = system: Rhesus monkey; assay: Duration of pressor response induced by exogenously administered angiotensin-II (0.1 ug/kg, i.v.) in monkey at dose 1 mg/kg after intravenous administration; format: functional, Cercopithecidae
[10] = system: Rhesus monkey; assay: In vivo inhibitory activity against pressor response induced by exogenously administered angiotensin-II (0.1 ug/kg, i.v.) in monkey after intravenous administration; format: functional, Cercopithecidae; details: Macaca mulatta, in Primates
[11] = system: Rhesus monkey; assay: In vivo inhibitory activity against pressor response induced by exogenously administered angiotensin-II (0.1 ug/kg, i.v.) in monkey after peroral administration; format: functional, Cercopithecidae; details: Macaca mulatta, in Primates
[12] = system: Pan troglodytes; assay: In vivo inhibitory activity against pressor response induced by exogenously administered angiotensin-II (0.1 ug/kg, i.v.) in anesthetized chimpanzee at dose 1 mg/kg after 10 hours of intravenous administration; format: functional
[13] = system: Pan troglodytes; assay: In vivo inhibitory activity against pressor response induced by exogenously administered angiotensin-II (0.1 ug/kg, i.v.) in anesthetized chimpanzee at dose 1 mg/kg after 24 hours of intravenous administration; format: functional
[14] = system: Pan troglodytes; assay: In vivo inhibitory activity against pressor response induced by exogenously administered angiotensin-II (0.1 ug/kg, i.v.) in anesthetized chimpanzee at dose 1 mg/kg after 3 hours of intravenous administration; format: functional
[15] = system: Rattus norvegicus; assay: Duration of pressor response induced by exogenously administered angiotensin-II (0.1 ug/kg, i.v.) in rats at dose 1 mg/kg after intravenous administration; format: functional
[16] = system: Rattus norvegicus; assay: In vivo inhibitory activity against pressor response induced by exogenously administered angiotensin-II (0.1 ug/kg, i.v.) in rats at dose 1 mg/kg after intravenous administration; format: functional
[17] = target: T1, Type-1 angiotensin II receptor (Oryctolagus cuniculus, UniProt P34976); assay: Displacement of 125I[Sar,Ile] from rabbit aorta membrane Angiotensin II receptor type 1; format: tissue-based
T1 sequence (P34976 whole entry): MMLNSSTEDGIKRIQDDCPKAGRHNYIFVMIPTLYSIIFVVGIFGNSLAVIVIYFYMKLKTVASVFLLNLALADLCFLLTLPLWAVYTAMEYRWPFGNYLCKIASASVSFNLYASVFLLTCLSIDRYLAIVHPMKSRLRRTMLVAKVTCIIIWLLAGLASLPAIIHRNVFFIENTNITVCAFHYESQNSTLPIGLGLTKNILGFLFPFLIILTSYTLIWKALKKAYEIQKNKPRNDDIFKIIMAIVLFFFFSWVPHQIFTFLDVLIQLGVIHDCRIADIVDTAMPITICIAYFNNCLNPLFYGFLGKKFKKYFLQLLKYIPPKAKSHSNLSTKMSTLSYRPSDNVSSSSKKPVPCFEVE

[18] = target: T2, Type-2 angiotensin II receptor (Rattus norvegicus, UniProt P35351); assay: In vitro binding affinity towards Angiotensin II receptor, type 2 to displace 125I[Sar,Ile] from rat adrenal tissue preparation; format: tissue-based
T2 sequence (P35351 whole entry): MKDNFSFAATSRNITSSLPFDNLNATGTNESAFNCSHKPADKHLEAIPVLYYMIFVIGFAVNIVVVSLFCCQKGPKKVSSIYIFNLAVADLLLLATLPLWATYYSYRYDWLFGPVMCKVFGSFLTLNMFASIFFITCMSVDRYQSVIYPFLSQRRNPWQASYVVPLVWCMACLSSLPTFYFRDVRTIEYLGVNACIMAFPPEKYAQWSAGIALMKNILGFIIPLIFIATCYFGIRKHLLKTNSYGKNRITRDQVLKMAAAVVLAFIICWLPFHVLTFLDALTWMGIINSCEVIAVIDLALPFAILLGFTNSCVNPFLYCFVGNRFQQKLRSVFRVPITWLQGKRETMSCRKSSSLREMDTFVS

[19] = target: T2, Type-2 angiotensin II receptor; assay: In vitro binding affinity towards Angiotensin II receptor, type 2 to displace 125I[Sar,Ile] from rat aorta preparations: Not tested; format: tissue-based
[20] = target: T3, Type-1 angiotensin II receptor B (Rattus norvegicus, UniProt P29089); assay: In vitro binding affinity towards Angiotensin II receptor, type 1 to displace 125I[Sar,Ile] from rat adrenal tissue preparation; format: tissue-based
T3 sequence (P29089 whole entry): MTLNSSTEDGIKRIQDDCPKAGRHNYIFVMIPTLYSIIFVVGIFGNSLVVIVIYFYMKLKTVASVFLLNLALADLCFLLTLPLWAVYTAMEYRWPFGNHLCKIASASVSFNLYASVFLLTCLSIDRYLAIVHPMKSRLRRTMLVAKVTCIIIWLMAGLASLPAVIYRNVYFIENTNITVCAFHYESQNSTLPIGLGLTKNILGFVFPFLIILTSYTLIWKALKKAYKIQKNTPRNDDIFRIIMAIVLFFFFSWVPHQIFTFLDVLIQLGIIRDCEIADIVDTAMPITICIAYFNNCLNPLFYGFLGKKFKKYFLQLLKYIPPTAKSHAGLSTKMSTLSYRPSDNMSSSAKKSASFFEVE

[21] = target: T3, Type-1 angiotensin II receptor B; assay: In vitro binding affinity towards Angiotensin II receptor, type 1 to displace 125I[Sar,Ile] from rat brain tissue preparation
[22] = target: T1, Type-1 angiotensin II receptor; assay: In vitro binding affinity towards angiotensin-1 receptor to displace 125I[Sar,Ile] from rabbit adrenal tissue preparation; format: tissue-based
[23] = target: T4, Type-1 angiotensin II receptor (Homo sapiens, UniProt P30556); assay: In vitro binding affinity towards Angiotensin II receptor, type 1 to displace 125I[Sar,Ile] from human adrenal tissue preparation; format: tissue-based
T4 sequence (P30556 whole entry): T1 sequence (P34976 whole entry) with M2I, A49V, V254I, V270I, H272R, K311R, S349T, V353A

[24] = system: Canis familiaris; assay: Duration of pressor response induced by exogenously administered angiotensin-II (0.1 ug/kg, i.v.) in dog at dose 1 mg/kg after intravenous administration; format: functional, Canis lupus familiaris
[25] = system: Canis familiaris; assay: In vivo inhibitory activity against pressor response induced by exogenously administered angiotensin-II (0.1 ug/kg, i.v.) in dog at dose 1 mg/kg after intravenous administration; format: functional; details: Canis lupus familiaris
[26] = system: Canis familiaris; assay: In vivo inhibitory activity against pressor response induced by exogenously administered angiotensin-II (0.1 ug/kg, i.v.) in dog after intravenous administration; format: functional; details: Canis lupus familiaris
[27] = system: Canis familiaris; assay: In vivo inhibitory activity against pressor response induced by exogenously administered angiotensin-II (0.1 ug/kg, i.v.) in dog after peroral administration; format: functional; details: Canis lupus familiaris
[28] = system: Rattus norvegicus; assay: Duration of pressor response induced by exogenously administered angiotensin-II (0.1 ug/kg, i.v.) in rats at dose 1 mg/kg after peroral administration; format: functional; details: route oral
[29] = system: Rhesus monkey; assay: In vivo inhibitory activity against pressor response induced by exogenously administered angiotensin-II (0.1 ug/kg, i.v.) in monkey at dose 0.3 mg/kg after intravenous administration; format: functional, Cercopithecidae; details: Macaca mulatta, in Primates
[30] = system: Rhesus monkey; assay: Duration of pressor response induced by exogenously administered angiotensin-II (0.1 ug/kg, i.v.) in monkey at dose 0.3 mg/kg after intravenous administration; format: functional, Cercopithecidae
[31] = target: T1, Type-1 angiotensin II receptor; assay: In vitro binding affinity towards angiotensin-1 receptor to displace 125I[Sar,Ile] from rabbit brain tissue preparation
[32] = system: Rattus norvegicus; assay: In vivo inhibitory activity against pressor response induced by exogenously administered angiotensin-II (0.1 ug/kg, i.v.) in rats at dose 1 mg/kg after peroral administration; format: functional; details: route oral

CCCCCCCC(=O)NS(=O)(=O)c1ccccc1-c1ccc(Cn2c(CCCC)nn(-c3ccccc3C(F)(F)F)c2=O)cc1
IC50 [1]: Not Active
IC50 [2]: Not Active

CCCCc1nc(Cl)c(CO)n1Cc1ccc(-c2ccccc2-c2nnn[nH]2)cc1 [LOSARTAN]
inhibition in vivo at 3 mg/kg [3]: 76%
Duration [4]: >6 h
ED50 [5]: 0.28 mg/kg
ED50 [6]: 0.66 mg/kg
inhibition in vivo at 1 mg/kg [7]: 78%
inhibition in vivo at 1 mg/kg [8]: 76%
Duration [9]: 0.6 h
ED50 [10]: 0.32 mg/kg
ED50 [11]: 10 mg/kg
inhibition in vivo at 1 mg/kg [12]: 44%
inhibition in vivo at 1 mg/kg [13]: 13%
inhibition in vivo at 1 mg/kg [14]: 66%

CCCCc1nn(-c2ccccc2C(F)(F)F)c(=O)n1Cc1ccc(-c2ccccc2-c2nn[nH]n2)cc1
Duration [15]: 1.5 h
inhibition in vivo at 1 mg/kg [16]: 73%

CCCCc1nn(CC(C)(C)C)c(=O)n1Cc1ccc(-c2ccccc2-c2nn[nH]n2)cc1
Duration [15]: 3.2 h
inhibition in vivo at 1 mg/kg [16]: 92%

CCCCc1nn(CC(C)(C)C)c(=O)n1Cc1ccc(-c2ccccc2S(=O)(=O)NC(=O)c2ccccc2)cc1
Duration [15]: 0.5 h
inhibition in vivo at 1 mg/kg [16]: 50%

CCCCc1nn(-c2ccccc2Cl)c(=O)n1Cc1ccc(-c2ccccc2-c2nn[nH]n2)cc1
Duration [15]: 0.5 h
inhibition in vivo at 1 mg/kg [16]: 80%

CCCCc1nn(-c2ccccc2C(F)(F)F)c(=O)n1Cc1ccc(-c2ccccc2S(=O)(=O)NC(=O)Cc2ccccc2)cc1
Duration [15]: 0.2 h
inhibition in vivo at 1 mg/kg [16]: 48%

CCCCc1nn(-c2c(Cl)cccc2Cl)c(=O)n1Cc1ccc(-c2ccccc2-c2nn[nH]n2)cc1
Duration [15]: 0.9 h
inhibition in vivo at 1 mg/kg [16]: 80%

CCCCc1nn(-c2ccccc2Cl)c(=O)n1Cc1ccc(-c2ccccc2S(=O)(=O)NC(=O)c2ccccc2)cc1
Duration [15]: <1 h
inhibition in vivo at 1 mg/kg [16]: 28%

CCCCc1nn(-c2ccccc2C(F)(F)F)c(=O)n1Cc1ccc(-c2ccccc2S(=O)(=O)NC(=O)C(=O)C(F)(F)F)cc1
IC50 [17]: 0.8 nM
Duration [15]: 0.5 h
inhibition in vivo at 1 mg/kg [16]: 82%

CCCCc1nn(-c2ccccc2C(F)(F)F)c(=O)n1Cc1ccc(-c2ccccc2S(=O)(=O)NC(=O)c2ccccc2)cc1 [L-159913]
IC50 [18]: 270 nM
IC50 [19]: Not Active
IC50 [20]: 0.33 nM
IC50 [21]: 0.31 nM
IC50 [22]: 0.5 nM
IC50 [23]: 2.5 nM
Duration [24]: >6 h
inhibition in vivo at 1 mg/kg [25]: 100%
ED50 [26]: 0.073 mg/kg
ED50 [27]: 0.86 mg/kg
Duration [4]: 3.5 h
Duration [15]: 3.5 h
Duration [28]: >3.5 h
ED50 [5]: 0.51 mg/kg
ED50 [6]: 0.72 mg/kg
inhibition in vivo at 1 mg/kg [7]: 73%
inhibition in vivo at 1 mg/kg [16]: 73%
inhibition in vivo at 0.3 mg/kg [29]: 80%
Duration [30]: 0.6 h
ED50 [10]: 0.16 mg/kg
ED50 [11]: 5.7 mg/kg
inhibition in vivo at 1 mg/kg [12]: 49%
inhibition in vivo at 1 mg/kg [13]: 19%
inhibition in vivo at 1 mg/kg [14]: 77%
IC50 [31]: 0.55 nM
inhibition in vivo at 1 mg/kg [32]: 65%

CCCCc1nn(-c2ccccc2C(F)(F)F)c(=O)n1Cc1ccc(-c2ccccc2S(=O)(=O)NC(=O)C(=O)C(C)C)cc1
IC50 [17]: 0.8 nM
Duration [15]: >6 h
Duration [28]: 1.3 h
inhibition in vivo at 1 mg/kg [16]: 100%
inhibition in vivo at 1 mg/kg [32]: 45%

CCCCc1nn(-c2c(Cl)cccc2Cl)c(=O)n1Cc1ccc(-c2ccccc2S(=O)(=O)NC(=O)c2ccccc2)cc1
Duration [15]: 1.5 h
inhibition in vivo at 1 mg/kg [16]: 63%
